Source: paper PMC11397358, “Cytotoxic Activity of Novel GnRH Analogs Conjugated with Mitoxantrone in Ovarian Cancer Cells” (Molecules, 2024)

System: SKOV-3 cells
Test: Annexin V / propidium iodide apoptosis assay by flow cytometry
Type: cell-based, human
Conditions: for Apoptotic Cells (%) Mean, Day2 / Apoptotic Cells (%) Mean, Day3 / Apoptotic Cells (%) Mean, Day4: 1 μM, Q1 and Q2, mean of three experiments, * p < 0.01 vs untreated; for Apoptotic Cells (%) Mean, Day2 / percentage of apoptotic cells (Q1, Q2 quadrants), day 2: 2 days; for Apoptotic Cells (%) Mean, Day3 / percentage of apoptotic cells (Q1, Q2 quadrants), day 3: 3 days; for Apoptotic Cells (%) Mean, Day4 / percentage of apoptotic cells (Q1, Q2 quadrants), day 4: 4 days; for percentage of apoptotic cells (Q1, Q2 quadrants), day 2 / percentage of apoptotic cells (Q1, Q2 quadrants), day 3 / percentage of apoptotic cells (Q1, Q2 quadrants), day 4: 1 μΜ, 37 °C, representative experiment (Figure 5)
Excerpt: We next evaluate the abilities of Con-3 and Con-7 at concentrations of 1 μΜ to induce cell death by determining the percentages of live, apoptotic and necrotic cells after treatment of SKOV-3 cells with the GnRH conjugates. As shown in Figure 5 and Figures S1–S3 on day 2, the majority of SKOV-3 cells were viable (Q4 quadrant), treated either with Con-3, Con-7 or mitoxantrone, whereas the percentage of apoptotic cells (late or early apoptotic) (Q1, Q2 quadrants) was only 10.1%, 10.87% and 13.1% after treatment with Con-3, Con-7 or mitoxantrone, respectively. […] Cell viability further decreased on day 4 with a concomitant increase in apoptosis. Specifically, the percentage of apoptotic cells was 53.5%, 59.6% and 54.3% after treatment with Con-3, Con-7 or mitoxantrone (Figure 5 and Figures S7–S9). In all phases, the percentage of the necrotic and late apoptotic cells (Q3 quadrant) was very small.
Figure 5 Determination of viability, apoptosis, or necrosis of SKOV-3 cells after their treatment with 1 μM Con-3, Con-7, or mitoxantrone for 2, 3, and 4 days at 37 °C. At the end of the incubation the cells were further incubated in binding buffer supplied by Biotium, (CF488A Apoptosis Detection kit) and analyzed on a flow cytometer (excitation 488 nm), in the FITC channel (filter 530 nm) for detection of the Annexin V-positive cellsand in the propidium iodide, or PI, channel (filter 616 nm) for detection of the PI-positive cells. The figures are from a representative experiment performed three times with similar results. A higher resolution of the images in Figure 5 is provided in the Supplementary Material (Figures S1–S9). TEXT PRINTED IN THE PICTURE: Con-3: Q3: 4,19 (Day 2); Q2: 7,12 (Day 2); Q4: 85,7 (Day 2); Q1: 2,98 (Day 2); Q3: 5,31 (Day3); Q2: 19,5 (Day3); Q4: 58,0 (Day3); Q1: 17,1 (Day3); Q3: 3,54 (Day4); Q2: 17,1 (Day4); Q4: 43,0 (Day4); Q1: 36,4 (Day4) | Con-7: Q3: 6,31 (Day 2); Q2: 7,74 (Day 2); Q4: 82,8 (Day 2); Q1: 3,13 (Day 2); Q3: 8,11 (Day3); Q2: 19,8 (Day3); Q4: 56,8 (Day3); Q1: 15,3 (Day3); Q3: 3,48 (Day4); Q2: 19,7 (Day4); Q4: 36,9 (Day4); Q1: 39,9 (Day4) | Mitoxantrone: Q3: 6,49 (Day 2); Q2: 9,40 (Day 2); Q4: 80,4 (Day 2); Q1: 3,67 (Day 2); Q3: 7,13 (Day3); Q2: 18,9 (Day3); Q4: 61,0 (Day3); Q1: 13,1 (Day3); Q3: 2,72 (Day4); Q2: 17,3 (Day4); Q4: 43,0 (Decimal sign as read) (Day4); Q1: 37,0 (Day4) DOUBTS OF THE COPYIST ABOUT THIS PICTURE: All quadrant values: the print is very small, and the decimal sign may be a comma or a point in every value / Con-3, Day 2, Q4: 85,7 or 86,7 / Con-3, Day 2, Q1: 2,98 or 2,96 / Con-3, Day3, Q3: 5,31 or 6,31 / Con-3, Day3, Q2: 19,5 or 19,6 / Con-3, Day3, Q4: 58,0 or 56,0 / Con-3, Day4, Q3: 3,54 or 3,64 / Con-3, Day4, Q1: 36,4 or 38,4 / Con-7, Day 2, Q3: 6,31 or 8,31 / Con-7, Day 2, Q4: 82,8 or 82,6 / Con-7, Day 2, Q1: 3,13 or 3,15 / Con-7, Day3, Q3: 8,11 or 6,11 / Con-7, Day3, Q2: 19,8 or 19,6 / Con-7, Day3, Q4: 56,8 or 58,8 / Con-7, Day3, Q1: 15,3 or 15,8 / Con-7, Day4, Q3: 3,48 or 3,46 / Con-7, Day4, Q4: 36,9 or 38,9 / Con-7, Day4, Q1: 39,9 or 38,9 / Mitoxantrone, Day 2, Q3: 6,49 or 8,49 / Mitoxantrone, Day 2, Q2: 9,40 or 8,40 / Mitoxantrone, Day 2, Q4: 80,4 or 60,4 / Mitoxantrone, Day 2, Q1: 3,67 or 3,87 / Mitoxantrone, Day3, Q2: 18,9 or 16,9 / Mitoxantrone, Day3, Q4: 61,0 or 81,0 / Mitoxantrone, Day3, Q1: 13,1 or 15,1 […]
SKOV-3 cells were seeded into 12-well plates at a density of 50,000 cells/well and incubated overnight in DMEM/F12 (1:1) containing 3.15 g/L glucose and 10% BCS, at 37 °C and 5% CO2. At the end of the incubation, the culture medium was replaced with a fresh one containing 3.15 g/L glucose and 2% BCS, with or without GnRH analogs or mitoxantrone at a concentration of 1 μΜ, and the cells were further incubated at 37 °C and 5% CO2 for 2, 3 and 4 days. […]

## CCNC(=O)[C@@H]1CCCN1C(=O)[C@H](CCCNC(=N)N)NC(=O)[C@H](CC(C)C)NC(=O)[C@@H](CSSCCC(=O)OCCNCCNc1ccc(NCCNCCO)c2c1C(=O)c1c(O)ccc(O)c1C2=O)NC(=O)[C@H](Cc1ccc(O)cc1)NC(=O)[C@H](CO)NC(=O)[C@H](Cc1c[nH]c2ccccc12)NC(=O)[C@H](Cc1c[nH]cn1)NC(=O)[C@@H]1CCC(=O)N1 [Con-3]
  Apoptotic Cells (%) Mean, Day2: 13.68 * %
  Apoptotic Cells (%) Mean, Day3: 35.00 * %
  Apoptotic Cells (%) Mean, Day4: 49.50 * %
  percentage of apoptotic cells (Q1, Q2 quadrants), day 2: 10.1%
  percentage of apoptotic cells (Q1, Q2 quadrants), day 3: 36.6%
  percentage of apoptotic cells (Q1, Q2 quadrants), day 4: 53.5%

## CCNC(=O)[C@@H]1CCCN1C(=O)[C@H](CCCNC(=N)N)NC(=O)[C@H](CC(C)C)NC(=O)[C@@H](CCCCNC(=O)CCCCCNC(=O)CCSSCC(=O)OCCNCCNc1ccc(NCCNCCO)c2c1C(=O)c1c(O)ccc(O)c1C2=O)NC(=O)[C@H](Cc1ccc(O)cc1)NC(=O)[C@H](CO)NC(=O)[C@H](Cc1c[nH]c2ccccc12)NC(=O)[C@H](Cc1c[nH]cn1)NC(=O)[C@@H]1CCC(=O)N1 [Con-7]
  Apoptotic Cells (%) Mean, Day2: 13.81 * %
  Apoptotic Cells (%) Mean, Day3: 33.53 * %
  Apoptotic Cells (%) Mean, Day4: 51.17 * %
  percentage of apoptotic cells (Q1, Q2 quadrants), day 2: 10.87%
  percentage of apoptotic cells (Q1, Q2 quadrants), day 3: 35.1%
  percentage of apoptotic cells (Q1, Q2 quadrants), day 4: 59.6%

## O=C1c2c(O)ccc(O)c2C(=O)c2c(NCCNCCO)ccc(NCCNCCO)c21 [mitoxantrone]
  Apoptotic Cells (%) Mean, Day2: 14.26 * %
  Apoptotic Cells (%) Mean, Day3: 33.60 * %
  Apoptotic Cells (%) Mean, Day4: 50.10 * %
  percentage of apoptotic cells (Q1, Q2 quadrants), day 2: 13.1%
  percentage of apoptotic cells (Q1, Q2 quadrants), day 3: 32%
  percentage of apoptotic cells (Q1, Q2 quadrants), day 4: 54.3%
